According to patent US7176224B2, “Oxazolyl-aryloxyacetic acid derivatives and their use as PPAR agonists” (Eli Lilly and Company, priority 2000, dated 2007):

Assays:
huPPARα [1] = target: T1, huPPARα (Homo sapiens, UniProt Q07869); test: DNA-dependent binding (ABCD binding), SPA, radioligand displacement; conditions: tritium-labeled PPARα agonist radioligand
T1 sequence (Q07869 1-468): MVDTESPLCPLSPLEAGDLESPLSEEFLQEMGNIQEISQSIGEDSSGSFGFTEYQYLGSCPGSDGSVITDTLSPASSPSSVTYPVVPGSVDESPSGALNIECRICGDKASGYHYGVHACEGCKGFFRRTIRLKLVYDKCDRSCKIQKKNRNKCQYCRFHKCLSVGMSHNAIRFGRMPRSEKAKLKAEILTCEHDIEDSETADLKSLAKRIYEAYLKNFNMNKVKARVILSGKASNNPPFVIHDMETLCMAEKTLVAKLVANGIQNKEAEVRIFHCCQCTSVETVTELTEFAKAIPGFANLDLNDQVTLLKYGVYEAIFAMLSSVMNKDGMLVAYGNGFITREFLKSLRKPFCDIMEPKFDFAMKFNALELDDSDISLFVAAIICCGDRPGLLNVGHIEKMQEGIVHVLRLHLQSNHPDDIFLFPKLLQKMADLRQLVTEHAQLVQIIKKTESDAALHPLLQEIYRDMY
T1 sequence (P19793 1-462 partner): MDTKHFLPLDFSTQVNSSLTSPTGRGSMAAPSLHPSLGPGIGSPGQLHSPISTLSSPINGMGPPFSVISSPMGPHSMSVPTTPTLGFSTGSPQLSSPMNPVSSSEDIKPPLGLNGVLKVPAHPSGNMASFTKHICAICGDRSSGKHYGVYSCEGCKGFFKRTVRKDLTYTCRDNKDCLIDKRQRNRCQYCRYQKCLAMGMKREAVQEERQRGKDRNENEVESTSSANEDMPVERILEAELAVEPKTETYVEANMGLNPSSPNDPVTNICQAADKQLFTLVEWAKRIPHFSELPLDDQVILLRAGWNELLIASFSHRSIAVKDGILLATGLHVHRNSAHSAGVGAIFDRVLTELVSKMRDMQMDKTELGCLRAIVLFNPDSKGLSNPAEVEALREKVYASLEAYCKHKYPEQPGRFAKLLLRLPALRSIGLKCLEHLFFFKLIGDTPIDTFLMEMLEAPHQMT
Protocol: (§1) […] binding (ABCD binding) was carried out using SPA technology with PPAR receptors. Tritium-labeled PPARα and PPARγ agonists were used as radioligands for generating displacement curves and IC50 values with compounds of the invention. Cotransfection assays were carried out in CV-1 cells. The reporter plasmid contained an acylCoA oxidase (AOX) PPRE and TK promoter upstream of the luciferase reporter cDNA. Appropriate PPARs and RXRα were constitutively expressed using plasmids containing the CMV promoter. […] In order to eliminate such interference, a GAL4 chimeric system was used in which the DNA binding domain of the transfected PPAR was replaced by that of GAL4, and the GAL4 response element was utilized in place of the AOX PPRE. Cotransfection efficacy was determined relative to PPARα agonist and PPARβ agonist reference molecules. Efficacies were determined by computer fit to a concentration-response curve, or in some cases at a single high concentration of agonist (10 μM). For binding or cotransfection studies with receptors other than PPARs, similar assays were carried out using appropriate ligands, receptors, reporter constructs, etc., for that particular receptor.
(§2) These studies were carried out to evaluate the ability of compounds of the invention to bind to and/or activate various nuclear transcription factors, particularly huPPARα (“hu” indicates “human”) and huPPARγ. These studies provide in vitro data concerning efficacy and selectivity of compounds of the invention. Furthermore, binding and cotransfection data for compounds of the invention were compared with corresponding data for marketed compounds that act on either huPPARα or huPPARγ.

huPPARγ [2] = target: T2, huPPARγ (Homo sapiens, UniProt P37231); test: as above; conditions: tritium-labeled PPARγ agonist radioligand
T2 sequence (P37231 1-505): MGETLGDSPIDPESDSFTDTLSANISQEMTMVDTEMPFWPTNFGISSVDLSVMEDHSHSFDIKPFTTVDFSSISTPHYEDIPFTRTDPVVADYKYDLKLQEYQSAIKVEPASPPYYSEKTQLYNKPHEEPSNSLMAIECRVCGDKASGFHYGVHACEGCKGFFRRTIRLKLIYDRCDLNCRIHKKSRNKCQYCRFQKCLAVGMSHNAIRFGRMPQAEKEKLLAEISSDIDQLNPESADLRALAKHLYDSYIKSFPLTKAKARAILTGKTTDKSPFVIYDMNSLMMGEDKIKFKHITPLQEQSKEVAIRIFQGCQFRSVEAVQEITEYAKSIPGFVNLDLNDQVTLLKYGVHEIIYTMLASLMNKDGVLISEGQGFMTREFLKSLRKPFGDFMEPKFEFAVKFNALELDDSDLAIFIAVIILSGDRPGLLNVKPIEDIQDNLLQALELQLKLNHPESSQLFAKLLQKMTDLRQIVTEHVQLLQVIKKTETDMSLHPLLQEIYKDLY
T2 sequence (P19793 1-462 partner): T1 sequence (P19793 1-462 partner)
Protocol: as §1, §2

huPPARα [3] = test: Cotransfection assay in CV-1 cells, luciferase reporter; assay type: cell-based, human; conditions: GAL4 chimeric system, relative to PPARα agonist reference molecule
Protocol: […] binding (ABCD binding) was carried out using SPA technology with PPAR receptors. Tritium-labeled PPARα and PPARγ agonists were used as radioligands for generating displacement curves and IC50 values with compounds of the invention. Cotransfection assays were carried out in CV-1 cells. The reporter plasmid contained an acylCoA oxidase (AOX) PPRE and TK promoter upstream of the luciferase reporter cDNA. Appropriate PPARs and RXRα were constitutively expressed using plasmids containing the CMV promoter. For PPARα and […], interference by endogenous […] in CV-1 cells was an issue. In order to eliminate such interference, a GAL4 chimeric system was used in which the DNA binding domain of the transfected PPAR was replaced by that of GAL4, and the GAL4 response element was utilized in place of the AOX PPRE. Cotransfection efficacy was determined relative to PPARα agonist and […] reference molecules. Efficacies were determined by computer fit to a concentration-response curve, or in some cases at a single high concentration of agonist (10 μM). For binding or cotransfection studies with receptors other than PPARs, similar assays were carried out using appropriate ligands, receptors, reporter constructs, etc., for that particular receptor.
as §2

huPPARγ [4] = test: as above; assay type: cell-based, human; conditions: GAL4 chimeric system, relative to agonist reference molecule
Protocol: as §1, with “Tritium-labeled PPARα and PPARγ agonists were used as radioligands for generating displacement curves and IC50 values with compounds of the invention.” left out, “Cotransfection efficacy was determined relative to PPARα agonist and PPARβ agonist reference molecules.” left out
as §2

Row | SMILES | IC50 (huPPARα [1]) [nM] | IC50 (huPPARγ [2]) [nM] | huPPARα CTF Efficacy (huPPARα [3]) [%] | huPPARγ CTF Efficacy (huPPARγ [4]) [%]
1 | Cc1oc(-c2ccc(-c3ccccc3)cc2)nc1CCOc1ccc(CC(C)(Oc2ccc(C(C)(C)C)cc2)C(=O)O)cc1 (stereo not drawn) [Example 15, 3-{4-[2-(2-Biphenyl-4-yl-5-methyl-oxazol-4-yl)-ethoxy]-phenyl}-2-methyl-2-(4-tert-butylphenoxy)-propionic acid] | 196 | 107 | 96 | 90
2 | CC(C)(Oc1ccc(C(=O)c2ccc(Cl)cc2)cc1)C(=O)O [Fenofibric acid, reference compound] | – | – | 16 | 0
3 | CCC(Cc1ccc(OCCc2nc(-c3cccc(-c4cccs4)c3)oc2C)cc1)(Oc1ccccc1)C(=O)O (stereo not drawn) [Example 42, 2-(4-{2-[5-Methyl-2-(3-thiophen-2-yl-phenyl)-oxazol-4-yl]-ethoxy}-benzyl)-2-phenoxy-butyric acid] | 310 | 56 | 49 | 105
4 | Cc1oc(-c2cccc(-c3ccccc3)c2)nc1CCOc1ccc(CC(C)(Oc2ccc3c(c2)OCO3)C(=O)O)cc1 (stereo not drawn) [Example 58, 2-(Benzo[1,3]dioxol-5-yloxy)-3-{4-[2-(2-biphenyl-3-yl-5-methyl-oxazol-4-yl)-ethoxy]-phenyl}-2-methyl-propionic acid] | 145 | 37 | 48 | 101
5 | Cc1oc(-c2cccc(-c3ccccc3)c2)nc1CCOc1ccc(CC(C)(Oc2ccc(F)cc2)C(=O)O)cc1 (stereo not drawn) [Example 51, 3-{4-[2-(2-Biphenyl-3-yl-5-methyl-oxazol-4-yl)-ethoxy]-phenyl}-2-(4-fluoro-phenoxy)-2-methyl-propionic acid] | 203 | 56 | 43 | 160
6 | Cc1cccc(OC(C)(Cc2ccc(OCCc3nc(-c4cccc(-c5ccccc5)c4)oc3C)cc2)C(=O)O)c1 (stereo not drawn) [Example 48, 3-{4-[2-(2-Biphenyl-3-yl-5-methyl-oxazol-4-yl)-ethoxy]-phenyl}-2-methyl-2-m-tolyloxy-propionic acid] | 182 | 54 | 45 | 145
7 | Cc1c(C)c2c(c(C)c1O)CCC(C)(COc1ccc(CC3SC(=O)NC3=O)cc1)O2 (stereo not drawn) [Troglitazone, reference compound] | – | – | 0 | –

Now from value to compound, other results behind:

Row | IC50 (huPPARα [1]) [nM] | IC50 (huPPARγ [2]) [nM] | SMILES | huPPARα CTF Efficacy (huPPARα [3]) [%] | huPPARγ CTF Efficacy (huPPARγ [4]) [%]
8 | 613 | 99 | COc1cccc(OC(C)(Cc2ccc(OCCc3nc(-c4ccc(-c5ccccc5)cc4)oc3C)cc2)C(=O)O)c1 (stereo not drawn) [Example 56, 3-{4-[2-(2-Biphenyl-4-yl-5-methyl-oxazol-4-yl)-ethoxy]-phenyl}-2-(3-methoxy-phenoxy)-2-methyl-propionic acid] | 70 | 88
9 | 4120 | 174 | COc1cc(CC(C)(Oc2ccccc2)C(=O)O)ccc1OCCc1nc(-c2ccc(-c3ccccc3)cc2)oc1C (stereo not drawn) [Example 7, 3-{4-[2-(2-Biphenyl-4-yl-5-methyloxazol-4-yl)ethoxy]-3-methoxyphenyl}-2-methyl-2-phenoxypropionic acid] | 60 | 93
10 | 186 | 119 | Cc1oc(-c2ccc(-c3cccs3)cc2)nc1CCOc1ccc(CC(C)(Oc2ccc(C(C)(C)C)cc2)C(=O)O)cc1 (stereo not drawn) [Example 17, 2-Methyl-3-(4-{2-[5-methyl-2-(4-thiophen-2-yl-phenyl)-oxazol-4-yl]-ethoxy}-phenyl)-2-(4-tert-butylphenoxy)-propionic acid] | 116 | 80
11 | 165 | 40 | Cc1ccc(OC(C)(Cc2ccc(OCCc3nc(-c4ccc(-c5ccccc5)cc4)oc3C)cc2)C(=O)O)cc1C (stereo not drawn) [Example 34, 3-{4-[2-(2-Biphenyl-4-yl-5-methyl-oxazol-4-yl)-ethoxy]-phenyl}-2-(3,4-dimethyl-phenoxy)-2-methyl-propionic acid] | 61 | 95
12 | 260 | 78 | Cc1oc(-c2ccc(-c3cccs3)cc2)nc1CCOc1ccc(CC(C)(Oc2cccc(F)c2)C(=O)O)cc1 (stereo not drawn) [Example 22, 2-(3-Fluoro-phenoxy)-2-methyl-3-(4-{2-[5-methyl-2-(4-thiophen-2-yl-phenyl)-oxazol-4-yl]-ethoxy}-phenyl)-propionic acid] | 63 | 100
13 | 159 | 55 | Cc1oc(-c2cccc(-c3cccs3)c2)nc1CCOc1ccc(CC(C)(Oc2ccc(Cl)cc2)C(=O)O)cc1 (stereo not drawn) [Example 26, 2-(4-Chlorophenoxy)-2-methyl-3-(4-{2-[5-methyl-2-(3-thiophen-2-yl-phenyl)-oxazol-4-yl]-ethoxy}-phenyl)-propionic acid] | 54 | 100
14 | 402 | 45 | CCC(Cc1ccc(OCCc2nc(-c3cccc(-c4ccccc4)c3)oc2C)cc1)(Oc1ccccc1)C(=O)O (stereo not drawn) [Example 41, 2-{4-[2-(2-Biphenyl-3-yl-5-methyl-oxazol-4-yl)-ethoxy]-benzyl}-2-phenoxy-butyric acid] | 44 | 108
